Measured values: publication PMC12365925, “Structural insights into a bacterial terpene cyclase fused with haloacid Dehalogenase-like phosphatase” (Chemical Science, 2025)

Target: T1, AsDMS (wild-type drimenol synthase) (Aquimarina spongiae, UniProt A0A1M6CXF0)
T1 construct: gene SAMN04488508_102320; wild-type, bifunctional N-terminal HAD and C-terminal TCbeta domains; dimer by gel filtration
Assay: steady-state kinetics of dephosphorylation
Assay type: biochemical
Details: HAD domain phosphatase site, Mg2+-dependent

T1 sequence (A0A1M6CXF0 entry or part of it): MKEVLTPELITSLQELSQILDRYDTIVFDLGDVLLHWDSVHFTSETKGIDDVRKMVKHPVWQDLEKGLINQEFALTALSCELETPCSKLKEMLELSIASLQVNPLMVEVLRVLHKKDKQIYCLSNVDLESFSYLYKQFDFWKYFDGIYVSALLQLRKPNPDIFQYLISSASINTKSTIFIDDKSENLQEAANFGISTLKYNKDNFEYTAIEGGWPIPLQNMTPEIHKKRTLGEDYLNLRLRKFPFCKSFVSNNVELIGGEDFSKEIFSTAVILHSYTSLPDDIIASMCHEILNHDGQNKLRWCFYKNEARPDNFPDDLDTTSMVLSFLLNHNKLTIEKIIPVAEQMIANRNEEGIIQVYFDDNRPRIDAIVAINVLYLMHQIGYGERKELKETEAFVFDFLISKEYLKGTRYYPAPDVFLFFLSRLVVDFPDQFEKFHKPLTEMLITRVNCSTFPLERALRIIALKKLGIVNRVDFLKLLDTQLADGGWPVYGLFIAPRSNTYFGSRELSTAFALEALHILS

Km: 5.81 ± 0.81 µM
Structure (SMILES): CC1=CC[C@H]2C(C)(C)CCC[C@]2(C)[C@H]1COP(=O)(O)O [compound 3, drimenyl monophosphate]
